Source: patent US9359373B1, “Lipophilic N-substituted norcantharimide derivatives and uses thereof” (priority 2014, dated 2016)
Like-named read-outs stand apart in the source and are kept apart here.

Key:
[1] = system: HL60; assay: MTT cell viability, HL60; format: cell-based, human
Experimental: (§1) Cell lines used in the present disclosure include human liver carcinonoma cell line HepG2, human bladder carcinoma cell line BFTC905, human colon carcinoma cell lines HT29 and SW480, and human leukemia cell lines HL60 and Jurkat T, and mouse lymphocytic leukemia cell line L1210. Each cell lines were cultured and maintained in Dulbecco's modified Eagle media (DMEM) or RPMI 1640 medium supplemented with 10% heat inactivated fetal bovine serum (FBS), 1% penicillin/streptomycin, in 5% CO2195% air at 37° C.
(§2) The absorbance of the solution at 540 nm was measured by spectrophotometer. The IC50 values were defined as the drug concentration that inhibit 50% cell growth by setting the viability of untreated cells as 100%. Values were represented as the mean±SD from at least 3 independent experiments.
(§3) Effects of the compounds of formula (I) of this disclosure, specifically, NOC15 and NC 15, on HepG2 cells (liver carcinoma), BFTC905 (bladder carcinoma), HT29 (colon carcinoma), SW480 (colon carcinoma) and HL60 (leukemia) were assessed by cell viability analysis in accordance with procedures described above, in which compound 2, and other known anti-cancer agents including 5-FU, cisplatin and doxorubicin were respectively used as positive controls.

[2] = Body weight of treated animals; format: in vivo, mice; details: 18 mg/Kg, compared with healthy normal control, FIG. 11
Experimental: To inoculate tumor, L1210 cells (1×10^6 cells per injection) were injected either subcutaneously or intraperitoneally to lab animals to generate tumors on day 1. After 7 days, NOC15 or NC15 (diluted in normal saline) was administered intra-peritoneally at a dose of 18 mg/kg every day for 7 days. The average body weight (BW) of the animals was measured daily.
Mice were inoculated with L1210 tumor cells in accordance with the procedures described in the section of “Materials and Methods.” For in vivo therapy, animals were given 18 mg/Kg NOC15 or NC15 by intra-peritoneal route, for a period of at least 7 days. Tumor size, animal body weight, respective weights of liver and spleen, as well as the white blood cell count of each animal were then measured respectively at the indicated time. Results are depicted in FIGS. 8 to 11, respectively.

[3] = system: Jurkat T cells; assay: Cell cycle distribution by flow cytometry, Jurkat T cells; format: cell-based, human; details: for percentage of cells in subG1 phase: FIG. 5, FIG. 7
Experimental: (§4) Cultured cells with or without pre-treatment of the compounds of this invention (i.e., norcantharidin, NOC15, or NC15, 10-60 μM for 48 hours) were harvested from the cultured media and fixed by incuating with 75% iced cold ehtanol and kept at −20° C. until analysis. The fixed cells were then washed with PBS, and treated with […] (200 μg/mL, 500 μL) for about 1.5 hour at 37° C. Precipitated cells were collected by centrifugation and re-suspended in a buffer solution containing propidium iodine (PI) (40 μg/ml) and incubated in the dark for 20 min at 20-25° C. before being subject to flow cytometry analysis, where cell numbers at respective cell cycles were determined.
Cell cycle distribution was determined by flow cytometry as described in the “Materials and Methods” section. Results is depicted in FIG. 5.
In this example, Jurkat T cells were treated with or without NC15 (2.513 μM) for 24 or 48 hours before being subject to cell cycle analysis. Results are depicted in FIG. 7.

[4] = system: human leukemia cells (Jurkat T cells); assay: Cell viability (CCK-8), PMAI activated leukemia Jurkat T cells model; format: cell-based; details: 24 hours (NC15: 24 and 48 hours), FIG. 4, FIG. 6
Experimental: The cell viability assays were performed in 96-well plates. The 100 μl of cell suspensions (NHL or Jurkat T cells, 5×10^3 cells/well, serum-free medium) were inoculated in the wells and the plates were pre-incubated in the incubator for 24 hours (pre-incubated for 22 hours and stimulated with PMA 5 ng/ml plus ionomycin 250 ng/ml for 2 hours in PMAI-treated groups). Then, various concentrations of norcantharidin (0, 2, 4, 15, 30 and 60 μM) or NOC15 (0, 0.25, 0.5, 1, 2 and 4 μM) were added into the culture media in the wells. After 24 hours of incubation, the cell viability of NHL and Jurkat T cells was measured by cell counting kit-8 (CCK-8, Sigma). The half maximal inhibitory concentrations (IC50) of norcantharidin and NOC15 on Jurkat T cells and NHL cells were calculated.
In this example, a model of phorbol 12-myristate 13-acetate plus ionomycin (PMAI) activated leukemia Jurkat T cells model was employed to investigate the effects of the NOC15 on human leukemia cells (Jurkat T cells) and human lymphoblast cells (NHL).

[5] = system: HepG2 cells; assay: Apoptotic analysis annexin-V/PI flow cytometry; format: cell-based, human; details: 10-60 μM, 48 hours, FIG. 3
Experimental: The percentage of apototic cells was determined according to the manufacturer's protocol by using an annexin-V/FITC kit/propidium iodine (PI) flow cytometer. To facilitate the detection of apoptosis, the treated cells were centrifuged for 5 min at a speed of 1,000×g at room temperature, and then resuspended and washed once with 5 mL PBS before being stained with annexin-V/PI (apoptosis detection kit, R&D Systems, Taipei, Taiwan).
(§5) HepG2 cells were treated with 10-60 μM of the test compounds for 48 hours, then cell cycle distribution and apoptosis analysis was analyzed by flow cytometry, with the subG1 phase being stained with propidium idoine (PI). Results are illustrated in FIGS. 2 and 3.

[6] = system: HepG2 cells; assay: Hoechst 33528 staining, nuclear morphological changes; format: cell-based, human; details: 40 μM, 48 hours, FIG. 1
Experimental: Staining with Hoechst 33528 was performed according to the method described previously (Huang et al., Cytotechnology 2009, 59, 201-208). Briefly, cells were treated with 40 μM norcantharidin, NOC15, or NC15 for 48 hours, then washed with PBS saline and stained with Hoechst 33528 (Sigma, St. Louis, Mo., USA) at a final concentration of 10 μg/mL. The slides were examined under a fluorescence microscope. Cells with a small nucleus, a high fluorescence intensity (due to chromatin condensation) or nuclear fragmentation were considered apoptotic.
To further investigate the role of apoptosis in the cytotoxicity of NOC15 and NC15, HepG2 cells were incubated with compound 2, NOC15 and NC15, respectively, for 48 hours; then were stained with Hoechst 33528 and examined by fluorescence microscope for any topical morphological changes.

[7] = system: SW480; assay: MTT cell viability, SW480; format: cell-based, human; details: Homo sapiens, SW480, 48 hours, Mean ± SD, read-out: Growth Inhibition IC50 SW480
Experimental: as §1, §2, §3

[8] = system: HepG2 cells; assay: Cell cycle distribution by flow cytometry (PI), HepG2; format: cell-based, human; details: 48 hours, FIG. 2
Experimental: as §4, §5

[9] = system: L1210 cells; assay: Ex vivo growth of leukemia cells (L1210); format: cell-based, mouse; details: read-out: concentration suppressing ex vivo growth of L1210 cells for about 50%

For `CC(C)=CCCC(C)=CCCC(C)=CCN1C(=O)C2C3CCC(O3)C2C1=O` (stereo not drawn) [Compound 18, N-farnesyl-7-oxabicyclo[2.2.1]heptane-2,3-dicarboximide], the IC50 ([1]; Homo sapiens, HL-60, MTT, 48 hours, Mean ± SD, read-out: Growth Inhibition IC50 HL-60) was 79.8 ± 1.1 µM, the “response of leukemia cell line HL60 to treatment” value ([1]; in words, from Table 1) was “did respond” and the “total body weight along the course of treatment” value [2] was “eventually brought the animal body weight to the level same as the control”. For the same compound, the “number of cells in G0/G1 phase” value ([3]; 2.513 μM, 48 hours, vs control, FIG. 7D) was “decreased”, the “percentage of cells in subG1 phase” value ([3]; treated 24 hours (NC15 2.513 μM)) was “started to increase” and the “percentage of cells in subG1 phase” value ([3]; treated 48 hours (NC15 2.513 μM)) was “reached a significant level”. For the same compound, the “cytotoxicity to leukemia Jurkat T cells” value [4] was “toxic”, the “percentage of apoptotic cells / cell death” value [5] was “dose-dependent” and the “nuclear morphological changes (apoptosis features)” value [6] was “Significant morphological features of apotosis”. The IC50 [7] was 33.1 ± 1 µM, the “fraction of apoptotic cells (subG1)” value ([8]; 10 μM) was 3.7% and the “fraction of apoptotic cells (subG1)” value ([8]; 60 μM) was 19.8%. The “accumulation of cells in G2/M phase” value ([8]; 10-60 μM) was “inducing the accumulation of cells in G2/M phase”, the IC50 ([9]; L1210, time not given, listed as NC15) was ~2.6 µM and the IC50 ([9]; Mus musculus, L1210, L1210, time not given) was ~1.6 µM.
